Test: xn = mol fraction of the nth substance listed
Settings: 100 kPa

CCCC[n+]1ccc(C)cc1.O=S(=O)([N-]S(=O)(=O)C(F)(F)F)C(F)(F)F + CCOS(=O)(=O)[O-].CC[n+]1ccn(C)c1
viscosity [mPa·s]
Settings	x2 = 0.0475	x2 = 0.1177	x2 = 0.226	x2 = 0.3341	x2 = 0.4479	x2 = 0.558	x2 = 0.6663	x2 = 0.7776	x2 = 0.886	x2 = 0.9487
293.15 K	78.7	–	100.8	–	132.9	–	150.8	149.6	141.6	133.5
303.15 K	49.3	54	62.2	70.8	79.8	–	90.1	–	85.5	81.1
313.15 K	33	36	41.1	–	51.7	55.9	–	57.9	55.7	–
323.15 K	23.3	25.3	28.6	31.9	35.5	38.2	–	–	38.3	36.8
333.15 K	17.2	–	20.9	–	25.5	–	–	28.4	27.7	26.7
343.15 K	–	–	15.6	17.1	18.9	20.2	–	–	20.6	–
353.15 K	–	11	–	13.3	14.5	15.5	16.1	–	15.9	15.4

CC[n+]1ccn(C)c1.O=S(=O)([O-])C(F)(F)C(F)F + CCCC[n+]1ccc(C)cc1.O=S(=O)([N-]S(=O)(=O)C(F)(F)F)C(F)(F)F
viscosity [mPa·s]
Settings	x2 = 0.0504	x2 = 0.112	x2 = 0.2211	x2 = 0.3324	x2 = 0.4432	x2 = 0.5529	x2 = 0.6631	x2 = 0.774	x2 = 0.8828	x2 = 0.9517
293.15 K	115.9	113.9	–	–	–	95.1	89.1	–	78.9	75.3
303.15 K	72	70.8	69.5	–	62.7	59.4	55.8	52.9	49.7	–
313.15 K	–	–	45.7	43.8	–	39.5	–	35.4	33.2	31.7
323.15 K	33.3	32.8	31.7	30.6	–	27.6	26.5	25	23.4	22.4
333.15 K	24.3	24	23.2	22.4	–	–	–	18.4	17.3	16.6
343.15 K	–	18	17.3	16.8	16.2	15.2	14.7	13.9	13	12.5
353.15 K	14.2	14	13.5	13.1	12.6	11.9	11.6	–	–	9.9

From a compilation of properties of binary mixtures (doi:10.1016/j.jct.2014.10.022)
